Key:
PMEL CD8^+ T cells = assay: CyTOF phenotyping of ex vivo expanded PMEL T cells stimulated with or without 2HC; format: cell-based, murine; settings: 5 mM 2HC during ex vivo expansion, vs untreated cells (effector and exhausted phenotype)
Excerpt: This Example describes experiments performed to apply the CyTOF technology to a comprehensively capture the phenotypic space of T cells. As described below, an in-depth understanding of the phenotype of differentially activated tumor-specific T cells can be achieved by using a CyTOF technique. […] Also used in these experiments was a palladium-based mass tag cell barcoding technique that enabled simultaneous analysis and pooling of 20 samples at a time, which allowed efficient multiplexing and reducing batch effects.
Generally, cells were suspended in supplemented media: complete RPMI 1640 media (with glutamine) with 1× non-essential amino acids, 1 mM sodium pyruvate, 0.4× vitamin solution, 92 µM 2-mercaptoethanol, 10 µM ciprofloxacin, 10% fetal bovine serum (FBS), and 50 IU/ml IL-2. At Day 0, splenocytes were used at a concentration of 2×10^6/ml, 100 µL /well in 96 well plate u-bottom. The cultures were started with 100×10^6 cells per condition, in 50 mL T cell media containing 60 IU/mL IL-2, 10 µg/mL GP100, and 5 mM 2HC (85 mg). At Day 3, the cell culture was fed with 50 µL media containing 120 IU/mL IL-2 and 5 mM 2HC. At Day 4, the cell culture was fed with 80 µL media containing 120 IU/mL IL-2 and 5 mM 2HC. […]
On Day 9, cells were counted and harvested into FACS tubes for CyTOF analysis using a panel of CYTOF biomarkers (see, e.g., FIG. 1 and Table 1). […]

T memory stem cells = settings: previously reported; by altering acetyl-Coenzyme A levels; cited from earlier work

O=C([O-])CC(O)(C(=O)[O-])C(O)C(=O)[O-].[K+].[K+].[K+] (centres unmarked) [2HC, tripotassium 2-hydroxycitrate]
shift of T cell phenotype on incubation with inhibitor of acetyl-CoA production (PMEL CD8^+ T cells): drastically shifted T cells towards a more memory like phenotype
generation of T memory stem cells (T memory stem cells): increases the generation of T memory stem cells

Reference: patent US20230285557A1, “MULTI-PARALLEL ANALYSIS OF T-CELL THERAPIES” (The Board of Trustees of the Leland Stanford Junior …, priority 2020, published 2023)
